# Reference: US6153424A, “Protease-deficient strains of Pichia methanolica” (ZymoGenetics, Inc., priority 1999, dated 2000)
# Test system: P. methanolica cells (strain CBS6515), UV-mutagenized
# Test: Nystatin enrichment for auxotrophic mutants; titering of colony forming units of treated versus control cells
# Format: cell-based, Pichia methanolica
# Settings: 1 mg nystatin added to remainder of 500 ml culture (50 ml set aside as control) in minimal broth with 5 g/L ammonium sulfate, 1 additional hour with shaking
# Method: Large-scale mutagenesis was then carried out using a 2-second UV exposure to provide about 20% killing. Cells were plated at approximately 10^4 cells/plate onto eight YEPD plates that were supplemented with 100 mg/L each of uracil, adenine, and leucine, which were added to supplement the growth of potential auxotrophs having the cognate deficiencies. Following UV exposure the plates were wrapped in foil and incubated overnight at 30° C. The following day the colonies on the plates (~10^5 total) were resuspended in water and washed once with water. An amount of cell suspension sufficient to give an OD600 of 0.1-0.2 was used to inoculate 500 ml of minimal broth made with yeast nitrogen base without amino acids or ammonia, supplemented with 1% glucose and 400 μg/L biotin. The culture was placed in a 2.8 L baffled Bell flask and shaken vigorously overnight at 30° C. The following day the cells had reached an OD600 of ~1.0-2.0. The cells were pelleted and resuspended in 500 ml of minimal broth supplemented with 5 g/L ammonium sulfate. The cell suspension was placed in a 2.8 L baffled Bell flask and shaken vigorously at 30° C. for 6 hours. 50 ml of the culture was set aside in a 250-ml flask as a control, and to the remainder of the culture was added 1 mg nystatin (Sigma Chemical Co., St. Louis, Mo.) to select for auxotrophic mutants (Snow, Nature 211:206-207, 1966). […]
smiles,measurement,value
C[C@@H]1[C@H](O)[C@@H](C)/C=C/C=C/CC/C=C/C=C/C=C/C=C/C(O[C@H]2O[C@H](C)[C@@H](O)[C@H](N)[C@@H]2O)CC2O[C@](O)(CC(O)C(O)CCC(O)CC(O)CC(O)CC(=O)O[C@H]1C)CC(O)C2C(=O)O (stereo partly shown) [nystatin],decrease in the number of viable cells (colony forming units) by a factor,10^4
